Test [1] concerns the target T1, human emopamil binding protein and human 7-dehydrocholesterol reductase (hEBP-DHCR7) (Homo sapiens, UniProt Q15125).
T1 construct: expressed in transfected cells; host or cells: HEK 293 cells, transient transfection with 2 DNA constructs
Nature of the test: hEBP-DHCR7 radioligand filtration binding assay. The note with it: membranes of HEK293 co-expressing hEBP and DHCR7; [3H] 2-thia-6-azaspiro[3.4]octane radioligand; 8 doses 0.06 to 5000 nM. As to the method:
Membrane Preparation: human emopamil binding protein and human 7-dehydrocholesterol reductase co-expressing cells were generated by transient transfecting host human embryonic kidney (HEK) 293 cells with 2 DNA constructs containing each protein's coding sequence. Cells were suspension cultured at 37° C. with 5% CO2 in […] 293 Expression Medium (Thermofisher). Whole cell membrane was prepared by harvesting the cell pellet, adding cold membrane buffer (50 mM Tris, pH7.5, lx Roche COMPLETE EDTA-free protease inhibitor cocktail) 10 times volume of the cell pellets weight, lysing cell pellet on ice by using Dounce homogenizer, spinning at 200 g 4° C. for 15 min, collecting supernatant and spinning again at 25000 g 4° C. for 50 min, transferring pellet to Dounce homogenizer, re-suspending pellet by homogenizing in membrane buffer on ice to reach ˜25 mg/mL, then keeping whole cell membrane aliquots at −80° C.
Compounds were prepared in a 96-well U bottom plate using an Echo550 machine and 10 mM compound DMSO stock solution, followed by an 8-dose 5-fold serial dilutions protocol with final testing compound concentration ranging from 0.06 to 5000 nM, with DMSO back fill to 100 nL/well and n=2. […] The UniFilter-96 GF/B plates were pre-treated by adding 50 µl/well of 0.3% (v/v) PEI to UniFilter-96 GF/B plates. The plates were sealed and incubated at 4° C. for 3 hrs. Then, the plates were washed with ice-cold assay buffer 3 times. The radioligand binding assay was prepared by adding assay buffer diluted hEBP-DHCR7 membrane at 66.7 μg/ml×150 l/well into the 96-well compound plate to reach 10 μg membrane per well. Then, the assay buffer diluted [3H]—((S)-6-(2-Methyl-3-(6-(trifluoromethyl)pyridin-3-yl)propyl)-2-thia-6-azaspiro[3.4]octane 2,2-dioxide or (R)-6-(2-Methyl-3-(6-(trifluoromethyl)pyridin-3-yl)propyl)-2-thia-6-azaspiro[3.4]octane 2,2-dioxide) was added at 25 nM×50 l/well. Following this, the plate was centrifuged at 1000 rpm for 30 secs. The plate was then sealed and agitated at 600 rpm at 22° C. for 5 min, and then incubated at 22° C. for 3 hrs. The incubation was stopped by transferring the binding solution to the pre-treated UniFilter-96 GF/B plate, vacuum filtrated, and then washed four times with ice-cold assay buffer. Following this, the plates were dried at 37° C. for 45 min. The plates were then sealed at the bottom. 40 µl/well of scintillation cocktail was added to the plates. A MicroBeta2 microplate counter was then used to read the plate and analyze the data. For reference and test compounds, the results are expressed as % Inhibition, using the normalization equation: N=100−100×(U−C2)/(C1−C2), where U is the unknown value, C1 is the average of high controls, and C2 is the average value of low controls. The IC50 was determined by fitting percentage of inhibition as a function of compound concentrations with Hill equation using XLfit. Results are expressed as hEBP-DHCR7 Ki (uM) in Table 4. Ki was calculated as described above; * indicates isolated isomer or isomers, but that the stereochemistry has not been assigned.

The test system of test [2] is zymostenol accumulation in EpiSC-derived OPCs (EBP). Nature of the test: GC/MS-based sterol profiling (zymostenol accumulation). The note with it: Mus musculus, 24 hours, 8 doses from 0.15 nM to 333 nM, read-out: Zymostenol GCMS EC50. The class given is cell-based. The method, then: To assess effects of treatments on OPCs, all treatments were assayed in two or more independent platings of epiblast stem cell-derived OPCs (EpiSC). EpiSC-derived OPCs were obtained using in vitro differentiation protocols and culture conditions described previously (Najm et al, 2011, Nature Methods). OPCs were expanded and frozen down in aliquots. OPCs were thawed into growth conditions for at least one passage before use in further assays.
Sterols were monitored using a modified Folch wash protocol (Hubler et al, 2018, Nature). EpiSC-derived OPCs were plated at 100,000 cells per well in PO- and laminin-coated 96-well plates in N2B27 media without growth factors. After 24 hours, cells were rinsed with saline and plates were frozen. Cholesterol-d7 standard was then added to each well before drying under nitrogen stream and derivatization with 55 μl of bis(trimethylsilyl) trifluoroacetamide. After derivatization, 2 μl were analyzed by gas chromatography/mass spectrometry using an Agilent 5973 Network Mass Selective Detector equipped with a 6890 gas chromatograph system and a HP-5MS capillary column (30 m×0.25 mm×[…]). Samples were analyzed in full scan mode using electron impact ionization; ion fragment peaks were integrated to calculate sterol abundance, and quantitation was relative to cholesterol-d7. The following ion fragments were used to quantitate each metabolite: cholesterol-d7 (465), FF-Mas (482), cholesterol (368), zymostenol (458), zymosterol (456), Desmosterol (456, 343), 7-dehydrocholesterol (456, 325), lanosterol (393), lathosterol (458), 14-dehydrozymostenol (456, 351). […] All standards were obtained from Avanti Polar Lipids unless otherwise indicated. Calibration curves were generated by injecting varying concentrations of sterol standards and maintaining a fixed amount of cholesterol-D7. For normalized zymostenol accumulation results, the total amount of zymostenol measured after drug treatment was divided by the total amount of zymostenol accumulated after 24 hr treatment with 100 nM positive control reference.

T1 sequence (Q15125 whole entry): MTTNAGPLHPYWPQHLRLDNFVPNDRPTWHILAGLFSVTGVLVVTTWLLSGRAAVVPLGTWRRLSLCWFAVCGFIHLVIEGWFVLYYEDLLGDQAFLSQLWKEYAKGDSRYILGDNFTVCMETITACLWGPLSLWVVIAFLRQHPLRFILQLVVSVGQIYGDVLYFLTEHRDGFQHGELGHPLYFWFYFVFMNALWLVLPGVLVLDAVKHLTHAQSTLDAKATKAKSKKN

As a reminder, the Ki is a measure of affinity in units of concentration, obtained from inhibition or displacement. One may read the EC50 as the midpoint of the concentration-response curve. For the molecule `CCn1nc(-c2cccnc2)cc1[C@H]1[C@@H]2C[C@@H](N3CCC4(C3)CS(=O)(=O)C4)C[C@@H]21` (single isomer, unassigned) [Compound 64*], in test [1], the affinity, expressed as Ki, was 203 nM. Moreover, the EC50 in test [2] turned out to be 44 nM.
As for `CCn1nc(-c2cncc(F)c2)cc1[C@H]1[C@@H]2C[C@@H](N3CCC4(CC3)CS(=O)(=O)C4)C[C@@H]21` (single isomer, unassigned) [Compound 66*], in test [1], the inhibitory constant (Ki) was determined as 26.4 nM. The EC50 in test [2] was 35 nM.
In test [1], `CCn1nc(-c2cncc(F)c2)cc1[C@H]1[C@@H]2C[C@H](N3CCC4(CC3)CS(=O)(=O)C4)C[C@@H]21` (single isomer, unassigned) [Compound 67*] registered a Ki of 171 nM. Moreover, in test [2], the half-maximal effective concentration (EC50) is 37 nM.
`CC(C)(C)n1nc(-c2cccc(C(F)(F)F)c2)nc1[C@H]1[C@@H]2C[C@H](N3CCC4(C3)CS(=O)(=O)C4)C[C@@H]21` (single isomer, unassigned) [Compound 76] had an inhibition constant Ki in test [1] of 11.8 nM. Further, in test [2], the concentration giving a half-maximal response (EC50) is 2.2 nM.
The corresponding values for `CC(C)(C)n1nc(C(F)(F)F)nc1[C@H]1[C@@H]2C[C@@H](N3CCC4(C3)CS(=O)(=O)C4)C[C@@H]21` (single isomer, unassigned) [Compound 77*] are 93 nM and 330 nM.
With `CC(C)(C)n1nc(C(F)(F)F)nc1[C@H]1[C@@H]2C[C@H](N3CCC4(C3)CS(=O)(=O)C4)C[C@@H]21` (single isomer, unassigned) [Compound 78*], affinity in test [1] was put at a Ki of 33.6 nM. Moreover, the EC50 in test [2] came to 53 nM.
In the case of `CC(C)n1nc(-c2cccc(C(F)(F)F)n2)cc1[C@H]1[C@@H]2C[C@@H](N3CCC[C@@]4(CCS(=O)(=O)C4)C3)C[C@@H]21` (single isomer, unassigned) [Compound 80*], the concentration for a half-maximal effect (EC50) in test [2] was found to be 4.3 nM.
For the molecule `CC(C)n1nc(-c2cccc(C(F)(F)F)n2)cc1[C@H]1[C@@H]2C[C@@H](N3CCC[C@]4(CCS(=O)(=O)C4)C3)C[C@@H]21` (single isomer, unassigned) [Compound 81*], the concentration for a half-maximal effect (EC50) in test [2] came to 27 nM.
Take `CC(C)n1nc(-c2cccc(C(F)(F)F)n2)cc1[C@H]1[C@@H]2C[C@H](N3CCC[C@@]4(CCS(=O)(=O)C4)C3)C[C@@H]21` (single isomer, unassigned) [Compound 82*]: in test [2], the EC50 came out at 3.6 nM.
For the molecule `CC(C)n1nc(-c2cccc(C(F)(F)F)n2)cc1[C@H]1[C@@H]2C[C@H](N3CCC[C@]4(CCS(=O)(=O)C4)C3)C[C@@H]21` (single isomer, unassigned) [Compound 83*], the EC50 in test [2] was 41 nM.
In turn, `O=S1(=O)CC[C@@]2(CCCN([C@@H]3C[C@@H]4[C@H](C3)[C@H]4c3cc(C(F)(F)F)nn3CC(F)F)C2)C1` (single isomer, unassigned) [Compound 86*] came in with a Ki in test [1] of 21.2 nM. In addition, the EC50 in test [2] amounted to 13 nM.
On to `O=S1(=O)CC[C@]2(CCCN([C@@H]3C[C@@H]4[C@H](C3)[C@H]4c3cc(C(F)(F)F)nn3CC(F)F)C2)C1` (single isomer, unassigned) [Compound 87*], for which affinity in test [1] was put at a Ki of 94.6 nM. In addition, in test [2], the concentration for a half-maximal effect (EC50) was over 330 nM.
In test [1], `O=S1(=O)CC[C@@]2(CCCN([C@H]3C[C@@H]4[C@H](C3)[C@H]4c3cc(C(F)(F)F)nn3CC(F)F)C2)C1` (single isomer, unassigned) [Compound 88*] yielded an inhibition constant Ki of 18.9 nM. Further, in test [2], the EC50 came out at 7.7 nM.
`O=S1(=O)CC[C@]2(CCCN([C@H]3C[C@@H]4[C@H](C3)[C@H]4c3cc(C(F)(F)F)nn3CC(F)F)C2)C1` (single isomer, unassigned) [Compound 89*] came in with a Ki in test [1] of 128 nM. Further, in test [2], the 50% effective concentration (EC50) came to 270 nM.
As for `O=S1(=O)CC2(CCN([C@H]3C[C@@H]4[C@H](C3)[C@H]4c3cc(C(F)(F)F)nn3CC(F)F)C2)C1` (single isomer, unassigned) [Compound 91*], in test [1], the affinity corresponds to a Ki of 16.3 nM. Moreover, the half-maximal effective concentration (EC50) in test [2] turned out to be 24 nM.
Consider `CC(C)n1nc(C(F)(F)F)cc1[C@H]1[C@@H]2C[C@@H](N3CCC[C@]4(CCS(=O)(=O)C4)C3)C[C@@H]21` (single isomer, unassigned) [Compound 93*], for which the EC50 in test [2] worked out at 240 nM.
Consider `CC(C)n1nc(C(F)(F)F)cc1[C@H]1[C@@H]2C[C@H](N3CCC[C@@]4(CCS(=O)(=O)C4)C3)C[C@@H]21` (single isomer, unassigned) [Compound 94*], for which the EC50 in test [2] worked out at 3.47 nM.
`CC(C)n1nc(C(F)(F)F)cc1[C@H]1[C@@H]2C[C@H](N3CCC[C@]4(CCS(=O)(=O)C4)C3)C[C@@H]21` (single isomer, unassigned) [Compound 95*]: in test [2], the concentration for a half-maximal effect (EC50) amounted to 58.3 nM.
As for `O=S1(=O)CC2(CCN([C@@H]3C[C@@H]4[C@H](C3)[C@H]4c3cc(C(F)(F)F)n(CC(F)F)n3)CC2)C1` (single isomer, unassigned) [Compound 96*], in test [1], the affinity corresponds to a Ki of 438 nM. The concentration for a half-maximal effect (EC50) in test [2] stood at 37.9 nM.
In turn, `O=S1(=O)CC2(CCN([C@H]3C[C@@H]4[C@H](C3)[C@H]4c3cc(C(F)(F)F)n(CC(F)F)n3)CC2)C1` (single isomer, unassigned) [Compound 97] returned an inhibitory constant (Ki) in test [1] of 6.85 nM. The concentration for a half-maximal effect (EC50) in test [2] is 22.1 nM.
Regarding `CC(C)n1nc([C@H]2CC[C@@](O)(C(F)(F)F)CC2)cc1[C@H]1[C@@H]2C[C@@H](N3CCC4(C3)CS(=O)(=O)C4)C[C@@H]21` (single isomer, unassigned) [Compound 105*], in test [1], the Ki is 554 nM. Moreover, the EC50 in test [2] turned out to be 110 nM.
On to `CC(C)n1nc([C@H]2CC[C@@H](C(F)(F)F)CC2)cc1[C@H]1[C@@H]2C[C@@H](N3CCC4(C3)CS(=O)(=O)C4)C[C@@H]21` (single isomer, unassigned) [Compound 106], for which the Ki in test [1] came to 13.1 nM. Moreover, the EC50 in test [2] was determined as 14.6 nM.
Regarding `CC(C)n1nc(-c2cccc(C(F)(F)F)c2)nc1[C@H]1[C@@H]2C[C@H](N3CCC4(C3)CS(=O)(=O)C4)C[C@@H]21` [Compound 52, 6-((1R,3r,5S,6r)-6-(1-isopropyl-3-(3-(trifluoromethyl)phenyl)-1H-1,2,4-triazol-5-yl)bicyclo[3.1.0]hexan-3-yl)-2-thia-6-azaspiro[3.4]octane 2,2-dioxide], in test [1], the affinity corresponds to a Ki of 10.3 nM. In test [2], the EC50 worked out at 2.4 nM.
`CC(C)n1nc(-c2cccc(C(F)(F)F)c2)nc1[C@H]1[C@@H]2C[C@@H](N3CCC4(CC3)CS(=O)(=O)C4)C[C@@H]21` [Compound 79, 7-((1R,3s,5S,6r)-6-(1-isopropyl-3-(3-(trifluoromethyl)phenyl)-1H-1,2,4-triazol-5-yl)bicyclo[3.1.0]hexan-3-yl)-2-thia-7-azaspiro[3.5]nonane 2,2-dioxide]: the 50% effective concentration (EC50) in test [2] was 3 nM.

The values above are taken from US20240391930A1, “SPIROCYCLIC BICYCLIC MODULATORS OF CHOLESTEROL BIOSYNTHESIS AND THEIR USE FOR PROMOTING REMYELINATION” (GENENTECH, INC., priority 2021, published 2024).
